Data reported in patent US12617756B2 (ABIVAX, priority 2019, dated 2026).

The compounds below were run on RSV A2 (assay: Screening for RSV inhibition using Viral ToxGlo assay (cytopathic effect inhibition in HEp-2 cells)). Details: human respiratory syncytial virus; RSV A2 in HEp-2 cells, MOI 0.5, 72h p.i., cytopathic effect inhibition relative to virus control, Viral ToxGlo luminescence.
Assay type: cell-based, Respiratory Syncytial Virus (RSV)
Method in brief: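 HEp-2 cells in 2% FBS medium infected with RSV A2 right after compound addition (max 1% DMSO), uninfected wells used for cytotoxicity. After 72 h p.i. at 37 °C/5% CO2, cell viability read by Viral ToxGlo luminescence as measure of cytopathic effect.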

Point of comparison: `O=C(N=C1NCCN1)c1ccc(Nc2cccc(C(=O)N3CCOCC3C(F)(F)F)c2Cl)c(C2CC2)c1` (centres unmarked) [Compound 122, 4-({2-chloro-3-[3-(trifluoromethyl)morpholine-4-carbonyl]phenyl}amino)-3-cyclopropyl-N—[imidazolidin-2-ylidene]benzamide], EC50 7.8 nM. Against it:
- CC1(NC(=O)c2cccc(Nc3ccc(C(=O)N=C4NCCN4)cc3C(C)(C)C)c2Cl)CC1 [Compound 132, 3-tert-butyl-4-({2-chloro-3-[(1-methylcyclopropyl)carbamoyl]phenyl}amino)-N-[imidazolidin-2-ylidene]benzamide] — 3-fold higher, 23.6 nM
- Cc1c(C(=O)NCCC(C)C)ccnc1Nc1ccc(C(=O)N=C2NCCN2)cc1C1CC1 [Compound 40, 2-[(2-cyclopropyl-4-{[(2E)-imidazolidin-2-ylidene]carbamoyl}phenyl)amino]-3-methyl-N-(3-methylbutyl)pyridine-4-carboxamide] — 8.9-fold higher, 69.2 nM
- O=C1CN/C(=N\C(=O)c2ccc(Nc3cccc(OCCCC4CCCCC4)c3)c(C3CC3)c2)N1 [Compound 41, 4-{[3-(3-cyclohexylpropoxy)phenyl]amino}-3-cyclopropyl-N-[(2E)-4-oxoimidazolidin-2-ylidene]benzamide] — 9.9-fold higher, 77.2 nM
- CC1(NC(=O)c2cccc(Nc3ccc(C(=O)N=C4NCCN4)cc3C3CC3)c2Cl)CC1 [Compound 167, 4-({2-chloro-3-[(1-methylcyclopropyl)carbamoyl]phenyl}amino)-3-cyclopropyl-N-[imidazolidin-2-ylidene]benzamide] — 2.3-fold higher, 17.8 nM
- CC(C)NC(=O)c1cc(F)cc(Nc2c(F)cc(C(=O)N=C3NCCN3)cc2C2CC2)c1 [Compound 128, 3-cyclopropyl-5-fluoro-4-({3-fluoro-5-[(propan-2-yl)carbamoyl]phenyl}amino)-N-[imidazolidin-2-ylidene]benzamide] — 1.7-fold higher, 13.2 nM
- O=C(N=C1NCCN1)c1ccc(Nc2cccc(C(=O)NC3CCS(=O)(=O)CC3)c2Cl)c(C2CC2)c1 [Compound 94, 4-({2-chloro-3-[(1,1-dioxo-1λ^6-thian-4-yl)carbamoyl]phenyl}amino)-3-cyclopropyl-N-[(2E)-imidazolidin-2-ylidene]benzamide] — 31-fold higher, 240 nM
- O=C(N=C1NCCN1)c1ccc(Nc2cccc(C(=O)N3C[C@@H]4C[C@H]3CO4)c2Cl)c(C2CC2)c1 [Compound 120, 4-({2-chloro-3-[(1S,4S)-2-oxa-5-azabicyclo[2.2.1]heptane-5-carbonyl]phenyl}amino)-3-cyclopropyl-N—[imidazolidin-2-ylidene]benzamide] — 2.5-fold higher, 19.5 nM
- O=C(N=C1NCCN1)c1cc(F)c(Nc2nccc(C(=O)N3CCOCC3)c2Cl)c(C2CC2)c1 [Compound 153, 4-{[3-chloro-4-(morpholine-4-carbonyl)pyridin-2-yl]amino}-3-cyclopropyl-5-fluoro-N-[imidazolidin-2-ylidene]benzamide] — 4.1-fold higher, 31.6 nM
- CC1(NC(=O)c2cccc(Nc3ccc(C(=O)N=C4NCCN4)cc3S(C)(=O)=O)c2Cl)CC1 [Compound 102, 2-chloro-3-[(4-{[(2Z)-imidazolidin-2-ylidene]carbamoyl}-2-methanesulfonylphenyl)amino]-N-(1-methylcyclopropyl)benzamide] — 100-fold higher, 819 nM
- O=C(N=C1NCCN1)c1ccc(Nc2cccc(C(=O)N3CCOCC3)c2Cl)c(C2CCCO2)c1 (centres unmarked) [Compound 97, 4-{[2-chloro-3-(morpholine-4-carbonyl)phenyl]amino}-N-[(2E)-imidazolidin-2-ylidene]-3-(oxolan-2-yl)benzamide] — 6.5-fold higher, 51 nM
- CC1(NC(=O)c2nccc(Nc3c(F)cc(C(=O)N=C4NCCN4)cc3C3CC3)c2Cl)CC1 [Compound 157, 3-chloro-4-[(2-cyclopropyl-6-fluoro-4-{[imidazolidin-2-ylidene]carbamoyl}phenyl)amino]-N-(1-methylcyclopropyl)pyridine-2-carboxamide] — 3.4-fold higher, 26.6 nM
- O=C(N=C1NCCN1)c1cc(F)c(Nc2nccc(C(=O)N3C[C@H]4C[C@@H]3CO4)c2Cl)c(C2CC2)c1 [Compound 154, 4-({3-chloro-4-[(1R,4R)-2-oxa-5-azabicyclo[2.2.1]heptane-5-carbonyl]pyridin-2-yl}amino)-3-cyclopropyl-5-fluoro-N-[imidazolidin-2-ylidene]benzamide] — 8.9-fold higher, 69.8 nM
- CCC1(NC(=O)c2cccc(Nc3ccc(C(=O)N=C4NCCN4)cc3C3CC3)c2)CC1 [Compound 31, 3-cyclopropyl-4-({3-[(1-ethylcyclopropyl)carbamoyl]phenyl}amino)-N-[(2Z)-imidazolidin-2-ylidene]benzamide] — 6.1-fold higher, 47.7 nM
- CC(C)C1(NC(=O)c2cccc(Nc3ccc(C(=O)N=C4NCCN4)cc3C3CC3)c2)CC1 [Compound 7] — 4.9-fold lower, 1.6 nM
- CC(C)NC(=O)c1cc(F)cc(Nc2ccc(C(=O)N=C3NCCN3)cc2C2CC2)c1 [Compound 32, 3-cyclopropyl-4-({3-fluoro-5-[(propan-2-yl)carbamoyl]phenyl}amino)-N-[(2Z)-imidazolidin-2-ylidene]benzamide] — 6.3-fold higher, 49.2 nM
- O=C(N=C1NCCN1)c1cc(F)c(Nc2cccc(C(=O)N3CCOC(C(F)(F)F)C3)c2)c(C2CC2)c1 (centres unmarked) [Compound 144, 3-cyclopropyl-5-fluoro-N-[imidazolidin-2-ylidene]-4-({3-[2-(trifluoromethyl)morpholine-4-carbonyl]phenyl}amino)benzamide] — 6.2-fold higher, 48.1 nM
- CC1(NC(=O)c2cccc(Nc3ccc(C(=O)N=C4NCCN4)cc3C3CCCO3)c2)CC1 (centres unmarked) [Compound 140, N-[imidazolidin-2-ylidene]-4-({3-[(1-methylcyclopropyl)carbamoyl]phenyl}amino)-3-(oxolan-2-yl)benzamide] — 29-fold higher, 227 nM
- CC(C)(C)c1cc(C(=O)N=C2NCCN2)ccc1Nc1cccc(C(=O)NCCC2CCOCC2)c1 [Compound 39, 3-tert-butyl-N-[(2E)-imidazolidin-2-ylidene]-4-[(3-{[2-(oxan-4-yl)ethyl]carbamoyl}phenyl)amino]benzamide] — 8.5-fold higher, 66.2 nM
- O=C(N=C1NCCN1)c1ccc(Nc2cccc(C(=O)NC3(C(F)(F)F)CC3)c2Cl)c(C2CC2)c1 [Compound 114, 4-[(2-chloro-3-{[1-(trifluoromethyl)cyclopropyl]carbamoyl}phenyl)amino]-3-cyclopropyl-N-[imidazolidin-2-ylidene]benzamide] — 4.2-fold higher, 32.6 nM
- CC1(NC(=O)c2ccnc(Nc3c(F)cc(C(=O)N=C4NCCN4)cc3C3CC3)c2F)CC1 [Compound 147, 2-[(2-cyclopropyl-6-fluoro-4-{[imidazolidin-2-ylidene]carbamoyl}phenyl)amino]-3-fluoro-N-(1-methylcyclopropyl)pyridine-4-carboxamide] — 13-fold higher, 99.4 nM
- O=C(N=C1NCCN1)c1ccc(Nc2cccc(C(=O)NC3CCOCC3)c2Cl)c(C2CC2)c1 [Compound 50, 4-({2-chloro-3-[(oxan-4-yl)carbamoyl]phenyl}amino)-3-cyclopropyl-N-[(2E)-imidazolidin-2-ylidene]benzamide] — 17-fold higher, 136 nM
- CC(C)(C)c1cc(C(=O)N=C2NCCN2)ccc1Nc1cc(C(=O)NCCC2CCOCC2)ccn1 [Compound 74, 2-[(2-tert-butyl-4-{[(2E)-imidazolidin-2-ylidene]carbamoyl}phenyl)amino]-N-[2-(oxan-4-yl)ethyl]pyridine-4-carboxamide] — 170-fold higher, 1310 nM
- N#CC1(NC(=O)c2cccc(Nc3c(F)cc(C(=O)N=C4NCCN4)cc3C3CC3)c2)CC1 [Compound 127, 4-({3-[(1-cyanocyclopropyl)carbamoyl]phenyl}amino)-3-cyclopropyl-5-fluoro-N-[imidazolidin-2-ylidene]benzamide] — 13-fold higher, 101 nM
- CC(C)C1CN(C(=O)c2cccc(Nc3ccc(C(=O)N=C4NCCN4)cc3C3CC3)c2Cl)CCO1 (centres unmarked) [Compound 105, 4-({2-chloro-3-[2-(propan-2-yl)morpholine-4-carbonyl]phenyl}amino)-3-cyclopropyl-N-[(2Z)-imidazolidin-2-ylidene]benzamide] — 2.4-fold lower, 3.2 nM
- CC(C)=CCn1nnnc1-c1cccc(Nc2ccc(C(=O)N=C3NCCN3)cc2C2CC2)c1 [Compound 60, 3-cyclopropyl-N-[(2Z)-imidazolidin-2-ylidene]-4-({3-[1-(3-methylbut-2-en-1-yl)-1H-1,2,3,4-tetrazol-5-yl]phenyl}amino)benzamide] — 31-fold higher, 241 nM
- O=C(N=C1NCCN1)c1cc(F)c(Nc2cccc(C(=O)N3CCOCC3)c2)c(C2CC2)c1 [Compound 119, 3-cyclopropyl-5-fluoro-N-[imidazolidin-2-ylidene]-4-{[3-(morpholine-4-carbonyl)phenyl]amino}benzamide] — 14-fold higher, 108 nM
- O=C(N=C1NCCN1)c1ccc(Nc2cccc(OCCCC3CCCCC3)c2)c(C2CC2)c1 [Compound 22, 4-{[3-(3-cyclohexylpropoxy)phenyl]amino}-3-cyclopropyl-N-[(2E)-imidazolidin-2-ylidene]benzamide] — 3.3-fold higher, 26 nM
- O=C(N=C1NCCN1)c1cc(F)c(Nc2cccc(C(=O)N3CCOCC3C(F)(F)F)c2)c(C2CC2)c1 (centres unmarked) [Compound 142, 3-cyclopropyl-5-fluoro-N-[imidazolidin-2-ylidene]-4-({3-[3-(trifluoromethyl)morpholine-4-carbonyl]phenyl}amino)benzamide] — 5.3-fold higher, 41.4 nM
- CC(C)C(=O)Nc1cccc(Nc2ccc(C(=O)N=C3NCCN3)cc2Cl)c1 [Compound 72, 3-chloro-N-[(2E)-imidazolidin-2-ylidene]-4-{[3-(2-methylpropanamido)phenyl]amino}benzamide] — 160-fold higher, 1230 nM
- CC(C)CCNC(=O)c1cccc(Nc2ccc(C(=O)N=C3NCCN3)cc2C(C)(C)O)c1 [Compound 44, 3-(2-hydroxypropan-2-yl)-N-[(2E)-imidazolidin-2-ylidene]-4-({3-[(3-methylbutyl)carbamoyl]phenyl}amino)benzamide] — 12-fold higher, 90.4 nM
- Cc1c(Nc2ccc(C(=O)N=C3NCCN3)cc2C2CC2)cccc1C(=O)NC1(C#N)CC1 [Compound 64, 4-({3-[(1-cyanocyclopropyl)carbamoyl]-2-methylphenyl}amino)-3-cyclopropyl-N-[(2Z)-imidazolidin-2-ylidene]benzamide] — 120-fold higher, 950 nM
